This is an account of results in patent US20050107400A1, “Use of pyrazolopyridines as therapeutic compounds” (priority 2001, published 2005).

Each structure is given as a SMILES string. pIC50: −log10 of the molar value. Where only a bound is given, the exact number is not on record here.

This test concerns HSV-1. Description: HSV-1 replication in infected Vero 76 cells, DNA hybridization capture assay. Format: cell-based, herpes simplex virus 1. Particulars: Human alphaherpesvirus 1; HSV-1 in Vero 76 cells, MOI=0.001, 40-48 hours at 37° C.; read-out: IC50. The protocol:
a) Tissue Culture and HSV Infection.
Vero 76 cells were maintained in MEM with Earle's salts, L-glutamine, 8% FBS (Hyclone, A-1111-L) and 100 units/mL Penicillin-100 μg/mL Streptomycin. For assay conditions, FBS was reduced to 2%. Cells are seeded into 96-well tissue culture plates at a density of 5×10^4 cells/well after being incubated for 45 min at 37° C. in the presence of HSV-1 or HSV-2 (MOI=0.001). Test compounds are added to the wells and the plates are incubated at 37° C. for 40-48 hours. Cell lysates are prepared as follows: media was removed and replaced with 150 μL/well 0.2 N NaOH with 1% Igepal CA 630 or NP-40. Plates were incubated up to 14 days at room temperature in a humidified chamber to prevent evaporation.
(b) Preparation of Detection DNA.
For the detection probe, a gel-purified, digoxigenin-labeled, […] PCR fragment of the HSV UL-15 sequence was utilized. PCR conditions included 0.5 μM primers, 180 μM dTTP, 20 μM dUTP-digoxigenin (Boehringer Mannheim 1558706), 200 μM each of dATP, dCTP, and dGTP, 1×PCR Buffer II (Perkin Elmer), 2.5 mM MgCl2, 0.025 units/μL of AmpliTaq Gold polymerase (Perkin Elmer), and 5 ng of gel-purified HSV DNA per 100 μL Extension conditions were 10 min at 95° C., followed by 30 cycles of 95° C. for 1 min, 55° C. for 30 sec, and 72° C. for 2 min. The amplification was completed with a 10-min incubation at 72° C. Primers were selected to amplify a 728 bp probe spanning a section of the HSV1 UL15 open reading frame (nucleotides 249-977). Single-stranded transcripts were purified with Promega M13 Wizard kits. The final product was mixed 1:1 with a mixture of 6 M GuSCN, 100 mM EDTA and 200 μg/mL herring sperm DNA and stored at 4° C.
(c) Preparation of Capture Plates.
The capture DNA plasmid (HSV UL13 region in pUC) was linearized by cutting with Xba I, denatured for 15 min at 95° C. and diluted immediately into Reacti-Bind DNA Coating Solution (Pierce, 17250, diluted 1:1 with TE buffer, pH 8) at 1 ng/μL. 75 μL/well were added to Corning (#3922 or 9690) white 96-well plates and incubated at room temperature for at least 4 hrs before washing twice with 300 μL/well 0.2×SSC/0.05% Tween-20 (SSC/T buffer). The plates were then incubated overnight at room temperature with 150 μL/well 0.2 N NaOH, 1% IGEPAL and 10 μg/mL herring sperm DNA.
Twenty-seven (27) μL of cell lysate was combined with 45 μL of hybridization solution (final concentration: 3M GuSCN, 50 mM EDTA, 100 μg/ml salmon sperm DNA, 5×Denhardt's solution, 0.25×APE, and 5 ng of the digoxigenin-labeled detection probe). APE is 1.5 M NH4-acetate, 0.15 M NH4H2 phosphate, and 5 mM EDTA adjusted to pH 6.0. Mineral oil (50 μL) was added to prevent evaporation. The hybridization plates were incubated at 95° C. for 10 minutes to denature the DNA, then incubated at 42° C. overnight. The wells were washed 6× with 300 μL/well SSC/T buffer then incubated with 75 μL/well anti-digoxigenin-HRP-conjugated antibody (Boehringer Mannheim 1207733, 1:5000 in TE) for 30 min at room temperature. The wells were washed 6× with 300 μL/well with PBS/0.05% Tween-20 before 75 μL/well SuperSignal LBA substrate (Pierce) was added. The plates were incubated at room temperature for 30 minutes and chemiluminescence was measured in a Wallac Victor reader.
The following results were obtained for HSV-1.
With `Fc1ccc(-c2nn3ccccc3c2-c2ccnc(NCCc3cnc[nH]3)c2)cc1` [Example 1, 4-[2-(4-Fluorophenyl)pyrazolo[1,5-a]pyridin-3-yl]-N-[2-(1H-imidazol-5-yl)ethyl]-2-pyridinamine], the pIC50 was 6.15.

Consider `CCCCNc1cc(-c2c(-c3ccc(F)cc3)nn3ccccc23)ccn1` [Example 2, N-Butyl-4-[2-(4-fluorophenyl)pyrazolo[1,5-a]pyridin-3-yl]-2-pyridinamine], for which the pIC50 was 5.80.

Consider `OCCCNc1cc(-c2c(-c3ccc(F)cc3)nn3ccccc23)ccn1` [Example 3, 3-(4-[2-(4-Fluorophenyl)pyrazolo[1,5-a]pyridin-3-yl]-2-pyridinylamino)-1-propanol], for which the pIC50 was 5.82.

For `NCCCNc1cc(-c2c(-c3ccc(F)cc3)nn3ccccc23)ccn1` [Example 4, N^1-4-[2-(4-Fluorophenyl)pyrazolo[1,5-a]pyridin-3-yl]-2-pyridinyl-1,3-propanediamine], the pIC50 was 4.70.

On to `CCCCCCNc1cc(-c2c(-c3ccc(F)cc3)nn3ccccc23)ccn1` [Example 5, 4-[2-(4-Fluorophenyl)pyrazolo[1,5-a]pyridin-3-yl]-N-hexyl-2-pyridinamine], for which the pIC50 was 5.30.

Turning to `COc1ccc(CNc2cc(-c3c(-c4ccc(F)cc4)nn4ccccc34)ccn2)cc1` [Example 6, 4-[2-(4-Fluorophenyl)pyrazolo[1,5-a]pyridin-3-yl]-N-(4-methoxybenzyl)-2-pyridinamine], the pIC50 was 5.38.

With `Fc1ccc(-c2nn3ccccc3c2-c2ccnc(NCc3cccnc3)c2)cc1` [Example 7, 4-[2-(4-Fluorophenyl)pyrazolo[1,5-a]pyridin-3-yl]-N-(3-pyridinylmethyl)-2-pyridinamine], the pIC50 is 5.21.

For `CCCNc1cc(-c2c(-c3ccc(F)cc3)nn3ccccc23)ccn1` [Example 8, 4-[2-(4-Fluorophenyl)pyrazolo[1,5-a]pyridin-3-yl]-N-propyl-2-pyridinamine], the pIC50 was 5.55.

Turning to `OCCNc1cc(-c2c(-c3ccc(F)cc3)nn3ccccc23)ccn1` [Example 9, 2-(4-[2-(4-Fluorophenyl)pyrazolo[1,5-a]pyridin-3-yl]-2-pyridinylamino)-1-ethanol], the pIC50 was 5.62.

In the case of `CN(C)c1cc(-c2c(-c3ccc(F)cc3)nn3ccccc23)ccn1` [Example 11, 4-[2-(4-Fluorophenyl)pyrazolo[1,5-a]pyridin-3-yl]-N,N-dimethyl-2-pyridinamine], the pIC50 is 5.36.

For `Fc1ccc(-c2nn3ccccc3c2-c2cc(F)nc(NCc3ccccc3)c2)cc1` [Example 12, N-Benzyl-6-fluoro-4-[2-(4-fluorophenyl)pyrazolo[1,5-a]pyridin-3-yl]-2-pyridinamine], the pIC50 is 5.41.

For the compound `CC(C)Nc1cc(-c2c(-c3ccc(F)cc3)nn3cc(C(F)(F)F)ccc23)ccn1` [Example 13, 4-[2-(4-Fluorophenyl)-6-trifluoromethylpyrazolo[1,5-a]pyridin-3-yl]-N-isopropyl-2-pyridinamine], the pIC50 is 5.92.

With `OCCCNc1cc(-c2c(-c3ccc(F)cc3)nn3cc(C(F)(F)F)ccc23)ccn1` [Example 14, 3-(4-[2-(4-Fluorophenyl)-6-trifluoromethylpyrazolo[1,5-a]-pyridin-3-yl]-2-pyridinylamino)-1-propanol], the pIC50 is 5.70.

On to `NCCCNc1cc(-c2c(-c3ccc(F)cc3)nn3cc(Br)ccc23)ccn1` [Example 15, N-(3-Aminopropyl)-4-[6-bromo-2-(4-fluorophenyl)-pyrazolo[1,5-a]pyridin-3-yl]-2-pyridinamine], for which the pIC50 is 5.40.

In the case of `CCCCNc1nccc(-c2c(-c3ccc(F)cc3)nn3ccccc23)n1` [Example 16, N-Butyl-4-[2-(4-fluorophenyl)pyrazolo[1,5-a]pyridin-3-yl]-2-pyrimidin-amine], the pIC50 was less than 4.70.

For the compound `CC(C)Nc1nccc(-c2c(-c3ccc(F)cc3)nn3ccccc23)n1` [Example 17, 4-[2-(4-Fluorophenyl)pyrazolo[1,5-a]pyridin-3-yl]-N-(2-propyl)-2-pyrimidinamine], the pIC50 is 5.82.

The term pIC50 denotes −log10 of the IC50, conventionally taken in molar units.
